{
  "source": "patent USRE48097E1",
  "about": "“Cephem compounds, their production and use” (priority 2015, dated 2020)",
  "type_in_all_cases": "cell-based",
  "key": {"P. aeruginosa 2573": {"test_system": "P. aeruginosa 2573", "assay": "MIC against P. aeruginosa 2573", "settings": "Table 2, P. aeruginosa 2573, OXA-10 (Class D)", "source_text": "(§1) Without limitation, the present cephem compounds alone, or in combination with one or more β-lactamase inhibitors, may provide improved antibacterial efficacy, particularly in antibiotic-resistant bacterial strains. It is believed that the present compounds may be structurally different from known compounds and, as a result, may be more basic in nature. It is an advantage that the present compounds may extend the spectrum of effective bacterial compounds, particularly against previously-resistant bacteria (e.g. ESKAPE organisms), and/or gram negative bacteria, without significant side effects. In a preferred embodiment, the present cephem compound may comprise reference compound ceftazidime, which may be used alone, or in combination with one or more β-lactamase inhibitors, such as NXL-104. As shown, the foregoing composition was tested for minimum inhibitory concentration (MIC, μg/mL) against bacteria listed in Tables 2-3."}, "K. baumanii 2579": {"test_system": "K. baumanii 2579", "assay": "MIC against K. baumanii 2579", "settings": "Table 2, K. baumanii 2579, OXA-25", "source_text": "as §1"}, "S. aureus 3132": {"test_system": "S. aureus 3132", "assay": "MIC against S. aureus 3132", "settings": "Table 2, S. aureus 3132, MSSA", "source_text": "as §1"}, "K. pneumoniae 2712": {"test_system": "K. pneumoniae 2712", "assay": "MIC against K. pneumoniae 2712", "settings": "Table 3, K. pneumoniae 2712, KPC-3, VIM-1", "protocol": "(§2) As shown, the foregoing composition was tested for minimum inhibitory concentration (MIC, μg/mL) against bacteria listed in Tables 2-3."}, "S. pneumoniae 2407": {"test_system": "S. pneumoniae 2407", "assay": "MIC against S. pneumoniae 2407", "settings": "Table 2, S. pneumoniae 2407, Pen S", "source_text": "as §1"}, "C. freundii 2003": {"test_system": "C. freundii 2003", "assay": "MIC against C. freundii 2003", "settings": "Table 2, C. freundii 2003, Caz R, IMP S", "source_text": "as §1"}, "C. freundii 580": {"test_system": "C. freundii 580", "assay": "MIC against C. freundii 580", "settings": "Table 2, C. freundii 580, Caz R, IMP S", "source_text": "as §1"}, "S. aureus 3136": {"test_system": "S. aureus 3136", "assay": "MIC against S. aureus 3136", "settings": "Table 2, S. aureus 3136, MSSA", "source_text": "as §1"}, "E. cloacae 552": {"test_system": "E. cloacae 552", "assay": "MIC against E. cloacae 552", "settings": "Table 2, E. cloacae 552, Caz S, IMP S", "source_text": "as §1"}, "P. aeruginosa 2686": {"test_system": "P. aeruginosa 2686", "assay": "MIC against P. aeruginosa 2686", "settings": "Table 3, P. aeruginosa 2686, KPC-2", "protocol": "as §2"}, "K. baumanii 4091": {"test_system": "K. baumanii 4091", "assay": "MIC against K. baumanii 4091", "settings": "Table 2, K. baumanii 4091, OXA-23", "source_text": "as §1"}, "E. coli 2668": {"test_system": "E. coli 2668", "assay": "MIC against E. coli 2668", "settings": "Table 2, E. coli 2668, OXA-48", "source_text": "as §1"}, "S. pneumoniae 2389": {"test_system": "S. pneumoniae 2389", "assay": "MIC against S. pneumoniae 2389", "settings": "Table 2, S. pneumoniae 2389, Pen R", "source_text": "as §1"}, "S. pneumoniae 2404": {"test_system": "S. pneumoniae 2404", "assay": "MIC against S. pneumoniae 2404", "settings": "Table 2, S. pneumoniae 2404, Pen S", "source_text": "as §1"}, "E. coli 4103": {"test_system": "E. coli 4103", "assay": "MIC against E. coli 4103", "settings": "Table 3, E. coli 4103, KPC-2, TEM-1, CMY-type", "protocol": "as §2"}, "[1]": {"settings": "Pseudomonas aeruginosa, alone, read-out: MIC"}, "[2]": {"settings": "Staphylococcus aureus, alone, read-out: MIC"}, "[3]": {"settings": "Streptococcus pneumoniae, alone, read-out: MIC"}, "[4]": {"settings": "Citrobacter freundii, alone, read-out: MIC"}, "[5]": {"settings": "Escherichia coli, alone, read-out: MIC"}},
  "note": "Read-outs that look alike come from different tables or passages of the source.",
  "data": [
    {"smiles": "CC(C)(O/N=C(\\C(=O)N[C@@H]1C(=O)N2C(C(=O)[O-])=C(C[n+]3ccc4c(ccn4Cc4cc(C(=N)N)co4)c3)CS[C@H]12)c1csc(N)n1)C(=O)O", "note": "[Example 6, (6R,7R)-7-{[(2Z)-2-(2-Amino-1,3-thiazol-4-yl)-2-{[(2-carboxypropan-2-yl)oxy]imino}acetyl]amino}-3-({1-[(4-carbamimidoylfuran-2-yl)methyl]-1H-pyrrolo[3,2-c]pyridin-5-ium-5-yl}methyl)-8-oxo-5-thia-1-azabicyclo[4.2.0]oct-2-ene-2-carboxylate]", "values": [
      {"measurement": "MIC", "setting": "P. aeruginosa 2573; [1]", "result": 2, "unit": "µg/mL"},
      {"measurement": "MIC", "setting": "P. aeruginosa 2573; in combination with NXL-104", "result": 2.00, "unit": "µg/mL"},
      {"measurement": "MIC", "setting": "K. baumanii 2579; alone, read-out: MIC", "result": "> 32", "unit": "µg/mL"},
      {"measurement": "MIC", "setting": "K. baumanii 2579; in combination with NXL-104", "result": 16.00, "unit": "µg/mL"},
      {"measurement": "MIC", "setting": "S. aureus 3132; [2]", "result": 4, "unit": "µg/mL"},
      {"measurement": "MIC", "setting": "S. aureus 3132; in combination with NXL-104", "result": 4.00, "unit": "µg/mL"},
      {"measurement": "MIC", "setting": "K. pneumoniae 2712; Klebsiella pneumoniae, alone, read-out: MIC", "result": "> 32", "unit": "µg/mL"},
      {"measurement": "MIC", "setting": "K. pneumoniae 2712; in combination with NXL-104", "result": 4, "unit": "µg/mL"},
      {"measurement": "MIC", "setting": "S. pneumoniae 2407; [3]", "result": "≤ 0.06", "unit": "µg/mL"},
      {"measurement": "MIC", "setting": "S. pneumoniae 2407; in combination with NXL-104", "result": "≤0.06", "unit": "µg/mL"},
      {"measurement": "MIC", "setting": "C. freundii 2003; [4]", "result": 4, "unit": "µg/mL"},
      {"measurement": "MIC", "setting": "C. freundii 2003; in combination with NXL-104", "result": 0.50, "unit": "µg/mL"},
      {"measurement": "MIC", "setting": "C. freundii 580; [4]", "result": 4, "unit": "µg/mL"},
      {"measurement": "MIC", "setting": "C. freundii 580; in combination with NXL-104", "result": 0.25, "unit": "µg/mL"},
      {"measurement": "MIC", "setting": "S. aureus 3136; [2]", "result": 4, "unit": "µg/mL"},
      {"measurement": "MIC", "setting": "S. aureus 3136; in combination with NXL-104", "result": 4.00, "unit": "µg/mL"},
      {"measurement": "MIC", "setting": "E. cloacae 552; Enterobacter cloacae, alone, read-out: MIC", "result": 0.12, "unit": "µg/mL"},
      {"measurement": "MIC", "setting": "E. cloacae 552; in combination with NXL-104", "result": 0.25, "unit": "µg/mL"},
      {"measurement": "MIC", "setting": "P. aeruginosa 2686; [1]", "result": 32, "unit": "µg/mL"},
      {"measurement": "MIC", "setting": "P. aeruginosa 2686; in combination with NXL-104", "result": 8, "unit": "µg/mL"},
      {"measurement": "MIC", "setting": "K. baumanii 4091; alone, read-out: MIC", "result": 16, "unit": "µg/mL"},
      {"measurement": "MIC", "setting": "K. baumanii 4091; in combination with NXL-104", "result": 4.00, "unit": "µg/mL"},
      {"measurement": "MIC", "setting": "E. coli 2668; [5]", "result": 0.5, "unit": "µg/mL"},
      {"measurement": "MIC", "setting": "E. coli 2668; in combination with NXL-104", "result": 0.12, "unit": "µg/mL"},
      {"measurement": "MIC", "setting": "S. pneumoniae 2389; [3]", "result": 2, "unit": "µg/mL"},
      {"measurement": "MIC", "setting": "S. pneumoniae 2389; in combination with NXL-104", "result": 2.00, "unit": "µg/mL"},
      {"measurement": "MIC", "setting": "S. pneumoniae 2404; [3]", "result": "≤ 0.06", "unit": "µg/mL"},
      {"measurement": "MIC", "setting": "S. pneumoniae 2404; in combination with NXL-104", "result": "≤0.06", "unit": "µg/mL"},
      {"measurement": "MIC", "setting": "E. coli 4103; [5]", "result": "> 32", "unit": "µg/mL"},
      {"measurement": "MIC", "setting": "E. coli 4103; in combination with NXL-104", "result": 4, "unit": "µg/mL"}
    ]}
  ]
}
